# Laboratory results as given in patent US20070082339A1, “Methods and compositions for screening for HDAC inhibitory activity” (priority 2005, published 2007).
# Test system: A549 cells
# Assay: Microarray analysis of gene expression after LAQ824 treatment
# Type: cell-based, human
# Conditions: A549, 500 nM vs DMSO
# Experimental: The human lung carcinoma cell line A549 is obtained from the American Type Culture Collection (Rockville, Md.) and cultured in F-12K (ATCC, Manassas, Va.), 10% fetal bovine serum, and 1% penicillin/streptomycin (Life Technologies, Inc.). LAQ824 (Novartis) is added directly to the cell medium at a final concentration of 500 nM. Microarray analysis is performed essentially as described previously (Welsh, 2001). Total RNA is prepared from A549 cells treated with LAQ 824 or DMSO for 0.5, 2, 6, 12 and 24 h. Labelled cDNA is prepared and hybridized to Affymetrix U133 oligonucleotide GeneChip® (Affymetrix, Santa Clara, Calif.). The arrays were scanned on an Affymetrix GeneArray scanner and analyzed with GENECHIP Microarray Analysis Suite 5.0 software (MAS5) (Affymetrix). The data (raw data including image files and scanner files (Cel. Files) as well as the MAS5 normalized data are stored in the DEMON Database. The MAS5 normalized data are exported from the database and analyzed using GeneSpring software version 6.1. The genes are filtered for a minimal expression of 100 in at least one condition (the condition being defined as the average the value for the 3 samples corresponding to a given time point and a treatement) The gene expression changes (fold change) are calculated for each time point (t) as follow: (Gene expression level LAQ824 treated—(Average of the 3 replicates) Time (t))/(Gene expression level DMSO treated—(Average of the 3 replicates) Time (t)).
# Any fold change <0 indicated a down regulation or reduction of the mRNA production, any fold change >0 indicated an up regulation or increase of mRNA production. Genes are filtered according to the fold change and the statistical significance of the changes (1-way-ANOVA test p<0.05)).
structure (smiles),measurement,setting,value
"O=C(/C=C/c1ccc(CN(CCO)CCc2c[nH]c3ccccc23)cc1)NO [LAQ824, N-Hydroxy-3-[4-[[(2-hydroxyethyl)[2-(1H-indol-3-yl)-ethyl]-amino]methyl]phenyl]-2E-2-propenamide]",Fold change AMP-activated protein kinase family member 5 (ARK5) 204589_at,2 h,−1.1 fold
same,"Fold change ANP32B acidic (leucine-rich) nuclear phosphoprotein 32 family, member B (SSP29) 201305_x_at",2 h,−1.3 fold
same,"Fold change AVEN apoptosis, caspase activation inhibitor (Aven) 219366_at",2 h,−1.2 fold
same,Fold change B-cell CLL/lymphoma 3 (BCL3) 204908_s_at,2 h,−1.9 fold
same,"Fold change BAI1-associated protein 2 (BAP2, IRSp53) 205293_x_at",2 h,1.4 fold
same,"Fold change BAI1-associated protein 3 (BAP3, KIAA0734) 204874_x_at",2 h,1.0 fold
same,"Fold change BAI1-associated protein 3 (BAP3, KIAA0734) 216356_x_at",2 h,2.3 fold
same,Fold change BCL2-associated athanogene 2 (BAG-2) 209406_at,2 h,−1.4 fold
same,"Fold change BCL2-interacting killer (apoptosis-inducing) (BP4, NBK, BIP1) 205780_at",2 h,2.0 fold
same,Fold change BCL2-like 1 (BCL2L1) 206665_s_at,2 h,−1.2 fold
same,Fold change BH3 interacting domain death agonist (BID) 204493_at,2 h,1.1 fold
same,"Fold change Cyclin A2 (CCN1, CCNA) 203418_at",2 h,−1.3 fold
same,"Fold change Cyclin-dependent kinase inhibitor 2D (p19, inhibits CDK4) (INK4D) 210240_s_at",2 h,1.9 fold
same,Fold change DEC1-anti apoptosis (BHLHB2) 201169_s_at,2 h,−3.2 fold
same,Fold change Diphtheria toxin receptor (heparin-binding epidermal growth factor-like growth factor) (DTR) 203821_at,2 h,9.8 fold
same,"Fold change Early growth response 1 (TIS8, NGFI-A, KROX-24, ZIF-268) 201694_s_at",2 h,1.4 fold
same,Fold change GMCL germ cell-less homolog (Drosophila) (GMCL) 218458_at,2 h,1.7 fold
same,Fold change Katanin p80 (WD40-containing) subunit B 1 (KAT) 203163_at,2 h,1.5 fold
same,"Fold change NACHT, leucine rich repeat and PYD containing 1 (PP1044) 218380_at",2 h,2.8 fold
same,Fold change Paternally expressed Gene 10 (PEG10) 212092_at,2 h,1.1 fold
same,Fold change Paternally expressed Gene 10 (PEG10) 212094_at,2 h,1.1 fold
same,Fold change Protein regulator of cytokinesis 1 (PRC1) 218009_s_at,2 h,−1.2 fold
same,Fold change SKAP55 protein 216899_s_at,2 h,1.0 fold
same,"Fold change Secreted frizzled-related protein 1 (FRP, SARP2) 202036_s_at",2 h,1.1 fold
same,"Fold change Secreted frizzled-related protein 1 (FRP, SARP2) 202037_s_at",2 h,1.1 fold
same,Fold change Serine/threonine kinase 6 (AIK) 208079_s_at,2 h,1.0 fold
same,Fold change Tribbles homolog 3a (TRIB3) 218145_at,2 h,−1.3 fold
same,"Fold change Tumor necrosis factor receptor superfamily, member 6 (TNFRSF6) 215719_x_at",2 h,−1.3 fold
same,"Fold change Tumor necrosis factor receptor superfamily, member 6 (TNFRSF6) 216252_x_at",2 h,−1.3 fold
same,Fold change Tumor protein p53 (Li-Fraumeni syndrome) 201746_at,2 h,1.1 fold
same,Fold change Tumor protein p53 (Li-Fraumeni syndrome) 211300_s_at,2 h,1.1 fold
same,Fold change member of the N-myc downregulated gene family (NDRG4) 209159_s_at,2 h,1.2 fold
same,Fold change AMP-activated protein kinase family member 5 (ARK5) 204589_at,6 h,−4.3 fold
same,"Fold change ANP32B acidic (leucine-rich) nuclear phosphoprotein 32 family, member B (SSP29) 201305_x_at",6 h,−1.6 fold
same,"Fold change AVEN apoptosis, caspase activation inhibitor (Aven) 219366_at",6 h,−1.5 fold
same,Fold change B-cell CLL/lymphoma 3 (BCL3) 204908_s_at,6 h,−10.5 fold
same,"Fold change BAI1-associated protein 2 (BAP2, IRSp53) 205293_x_at",6 h,6.2 fold
same,"Fold change BAI1-associated protein 3 (BAP3, KIAA0734) 204874_x_at",6 h,5.1 fold
same,"Fold change BAI1-associated protein 3 (BAP3, KIAA0734) 216356_x_at",6 h,11.1 fold
same,Fold change BCL2-associated athanogene 2 (BAG-2) 209406_at,6 h,−2.4 fold
same,"Fold change BCL2-interacting killer (apoptosis-inducing) (BP4, NBK, BIP1) 205780_at",6 h,6.3 fold
same,Fold change BCL2-like 1 (BCL2L1) 206665_s_at,6 h,−4.2 fold
same,Fold change BH3 interacting domain death agonist (BID) 204493_at,6 h,−1.9 fold
same,"Fold change Cyclin A2 (CCN1, CCNA) 203418_at",6 h,−2.3 fold
same,"Fold change Cyclin-dependent kinase inhibitor 2D (p19, inhibits CDK4) (INK4D) 210240_s_at",6 h,4.9 fold
same,Fold change DEC1-anti apoptosis (BHLHB2) 201169_s_at,6 h,−4.5 fold
same,Fold change Diphtheria toxin receptor (heparin-binding epidermal growth factor-like growth factor) (DTR) 203821_at,6 h,8.5 fold
same,"Fold change Early growth response 1 (TIS8, NGFI-A, KROX-24, ZIF-268) 201694_s_at",6 h,3.6 fold
same,Fold change GMCL germ cell-less homolog (Drosophila) (GMCL) 218458_at,6 h,4.1 fold
same,Fold change Katanin p80 (WD40-containing) subunit B 1 (KAT) 203163_at,6 h,2.9 fold
same,"Fold change NACHT, leucine rich repeat and PYD containing 1 (PP1044) 218380_at",6 h,7.6 fold
same,Fold change Paternally expressed Gene 10 (PEG10) 212092_at,6 h,2.0 fold
same,Fold change Paternally expressed Gene 10 (PEG10) 212094_at,6 h,1.9 fold
same,Fold change Protein regulator of cytokinesis 1 (PRC1) 218009_s_at,6 h,−1.9 fold
same,Fold change SKAP55 protein 216899_s_at,6 h,1.6 fold
same,"Fold change Secreted frizzled-related protein 1 (FRP, SARP2) 202036_s_at",6 h,1.6 fold
same,"Fold change Secreted frizzled-related protein 1 (FRP, SARP2) 202037_s_at",6 h,1.8 fold
same,Fold change Serine/threonine kinase 6 (AIK) 208079_s_at,6 h,−2.0 fold
same,Fold change Tribbles homolog 3a (TRIB3) 218145_at,6 h,−4.6 fold
same,"Fold change Tumor necrosis factor receptor superfamily, member 6 (TNFRSF6) 215719_x_at",6 h,−3.2 fold
same,"Fold change Tumor necrosis factor receptor superfamily, member 6 (TNFRSF6) 216252_x_at",6 h,−2.9 fold
same,Fold change Tumor protein p53 (Li-Fraumeni syndrome) 201746_at,6 h,−1.9 fold
same,Fold change Tumor protein p53 (Li-Fraumeni syndrome) 211300_s_at,6 h,−1.6 fold
same,Fold change member of the N-myc downregulated gene family (NDRG4) 209159_s_at,6 h,2.8 fold
